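A five-concentration, 48-hour dose response in 96-well plates underlies each endpoint, interpolated linearly between surrounding concentrations. GI50 is the concentration that inhibits growth by half.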 Calls of active or inactive are those of the source. No stated cut-off is given here; in the data, active = GI50 up to about 1.1 µM and inactive = higher.
Experiments:
Test in all cases: growth of human tumour cells (NCI), 48 h
[1] = system: HCT-116
[2] = system: NCI-H522
[3] = system: NCI-H226
[4] = system: SK-OV-3
[5] = system: HCT-15
[6] = system: SK-MEL-5
[7] = system: Malme-3M
[8] = system: LOX IMVI
[9] = system: OVCAR-8
[10] = system: RPMI-8226
[11] = system: IGROV-1
[12] = system: K562
[13] = system: SF-268
[14] = system: NCI-H460
[15] = system: NCI-H23
[16] = system: OVCAR-4
[17] = system: A498
[18] = system: MOLT-4

Row | SMILES | GI50 [1] | GI50 [2] | GI50 [3] | GI50 [4] | GI50 [5] | GI50 [6] | GI50 [7] | GI50 [8] | GI50 [9] | GI50 [10] | GI50 [11] | GI50 [12] | GI50 [13] | GI50 [14] | GI50 [15] | GI50 [16] | GI50 [17] | GI50 [18]
1 | Cn1c(=O)c(/N=N/c2c(=O)n(C)c(=O)n3c2[nH]c2ccccc23)c2[nH]c3ccccc3n2c1=O | 6.95 µM (inactive) | 66.5 µM (inactive) | 36.3 µM (inactive) | > 100 µM (inactive) | 48.5 µM | > 100 µM (inactive) | > 100 µM (inactive) | 6.24 µM (inactive) | 57.9 µM (inactive) | > 100 µM (inactive) | 86.7 µM (inactive) | > 100 µM (inactive) | 46.2 µM (inactive) | 9.89 µM (inactive) | 71.1 µM (inactive) | > 100 µM (inactive) | 90.4 µM (inactive) | –
2 | NCCCNCc1c2ccccc2c(CNCCCN)c2ccccc12 | 5.35 µM (inactive) | 5.96 µM (inactive) | – | – | 22 µM | 27.1 µM (inactive) | 11.7 µM (inactive) | – | 14.6 µM (inactive) | – | 44.2 µM (inactive) | 13.6 µM (inactive) | 5.12 µM (inactive) | 16.4 µM (inactive) | 18.6 µM (inactive) | 11.1 µM (inactive) | 23.1 µM (inactive) | 12 µM (inactive)
3 | Cc1ccc(S(=O)(=O)NC(=O)NCCc2ccccc2)cc1 | > 100 µM (inactive) | 73.8 µM (inactive) | > 100 µM (inactive) | > 100 µM (inactive) | – | > 100 µM (inactive) | > 100 µM (inactive) | > 100 µM (inactive) | > 100 µM (inactive) | > 100 µM (inactive) | > 100 µM (inactive) | 83.4 µM (inactive) | > 100 µM (inactive) | > 100 µM (inactive) | 76.7 µM (inactive) | > 100 µM (inactive) | > 100 µM (inactive) | > 100 µM (inactive)
4 | CCCCCCCCCCCCCCCC(=O)OCC1OC(n2cc(F)c(=O)[nH]c2=O)C(N)C(O)C1O (stereo not given) | 20 µM (inactive) | 17.8 µM (inactive) | 17.5 µM (inactive) | 22.4 µM (inactive) | – | 18.1 µM (inactive) | 19.4 µM (inactive) | 17.4 µM (inactive) | 20.5 µM (inactive) | 23.3 µM (inactive) | > 10 µM (inactive) | 16.5 µM (inactive) | 19.5 µM (inactive) | – | 19.7 µM (inactive) | 15.8 µM (inactive) | 25.9 µM (inactive) | 22.8 µM (inactive)
5 | O=C(NNC(=O)/C(=C/c1cccc([N+](=O)[O-])c1)NC(=O)c1ccccc1)Nc1ccc(Cl)cc1 | 13.4 µM (inactive) | 12.3 µM (inactive) | 15.1 µM (inactive) | 15.8 µM (inactive) | 12.2 µM | 13.1 µM (inactive) | 14.2 µM (inactive) | 15.6 µM (inactive) | 14.2 µM (inactive) | 9.55 µM (inactive) | 11.9 µM (inactive) | 5.66 µM (inactive) | 15.1 µM (inactive) | 14.6 µM (inactive) | 15.1 µM (inactive) | 11.2 µM (inactive) | 10.6 µM (inactive) | 3.94 µM (inactive)
6 | N#Cc1ccccc1/C=N/O | > 44.2 µM (inactive) | > 100 µM (inactive) | > 100 µM (inactive) | > 100 µM (inactive) | > 41 µM | > 100 µM (inactive) | > 100 µM (inactive) | > 100 µM (inactive) | > 100 µM (inactive) | > 42.2 µM (inactive) | > 100 µM (inactive) | > 44.7 µM (inactive) | > 100 µM (inactive) | > 59.2 µM (inactive) | > 100 µM (inactive) | > 100 µM (inactive) | > 100 µM (inactive) | > 100 µM (inactive)
7 | CCN1C[C@]2(C)CC[C@H](O)C34C1C(C[C@@H]32)[C@@]1(O)CC[C@H]2C[C@@H]4[C@@H]1[C@H]2O | > 100 µM (inactive) | > 100 µM (inactive) | – | > 100 µM (inactive) | > 100 µM | > 100 µM (inactive) | > 100 µM (inactive) | > 100 µM (inactive) | > 100 µM (inactive) | > 100 µM (inactive) | > 100 µM (inactive) | – | > 100 µM (inactive) | > 100 µM (inactive) | > 100 µM (inactive) | > 100 µM (inactive) | – | > 100 µM (inactive)
8 | Cc1ccc(NC(=O)c2cc3cc(/N=N/c4ccccc4C(=O)O)ccc3oc2=O)cc1 | 28.4 µM (inactive) | 30.1 µM (inactive) | 39.4 µM (inactive) | 74 µM (inactive) | 34.5 µM | 28.5 µM (inactive) | 43.2 µM (inactive) | 35.2 µM (inactive) | 58.7 µM (inactive) | 18.6 µM (inactive) | 41.2 µM (inactive) | 39.2 µM (inactive) | – | 49.3 µM (inactive) | 32.1 µM (inactive) | – | – | 32.2 µM (inactive)
9 | COC(=O)c1c/c(=N\NC(=O)CC(=O)Nc2ccccc2Cl)c2ccccc2o1 | > 100 µM (inactive) | > 100 µM (inactive) | 27.7 µM (inactive) | > 100 µM (inactive) | > 100 µM | > 100 µM (inactive) | – | > 100 µM (inactive) | > 100 µM (inactive) | > 100 µM (inactive) | > 100 µM (inactive) | > 100 µM (inactive) | > 100 µM (inactive) | > 100 µM (inactive) | > 100 µM (inactive) | > 100 µM (inactive) | > 10 µM (inactive) | > 100 µM (inactive)
10 | COCCCNC(=O)C1C(=O)N(CCCOC)C(=O)/C1=N\N (stereo not given) | > 100 µM (inactive) | > 100 µM (inactive) | – | – | > 100 µM | > 100 µM (inactive) | > 100 µM (inactive) | – | > 100 µM (inactive) | > 100 µM (inactive) | – | > 100 µM (inactive) | > 100 µM (inactive) | > 100 µM (inactive) | > 100 µM (inactive) | > 100 µM (inactive) | > 100 µM (inactive) | > 100 µM (inactive)
11 | Cc1nc(N2N=C(c3ccc(Cl)cc3)CCC2=O)sc1[N+](=O)[O-] | > 100 µM (inactive) | > 100 µM (inactive) | > 100 µM (inactive) | > 100 µM (inactive) | > 100 µM | > 100 µM (inactive) | > 100 µM (inactive) | > 100 µM (inactive) | > 100 µM (inactive) | > 100 µM (inactive) | > 100 µM (inactive) | > 100 µM (inactive) | > 100 µM (inactive) | > 100 µM (inactive) | > 100 µM (inactive) | > 100 µM (inactive) | – | > 100 µM (inactive)
12 | COc1cc(-c2nccc3cc(OC)c(OC)cc23)ccc1O | 49 µM (inactive) | 35.8 µM (inactive) | > 100 µM (inactive) | 68.2 µM (inactive) | 27.9 µM | 32.6 µM (inactive) | > 100 µM (inactive) | 36.6 µM (inactive) | 44.1 µM (inactive) | 21.4 µM (inactive) | 80 µM (inactive) | 40.8 µM (inactive) | – | 27.8 µM (inactive) | 32.4 µM (inactive) | 68.4 µM (inactive) | – | 29.2 µM (inactive)
13 | O=C(CSc1nnc(-c2ccc(/N=C\c3ccc(Cl)cc3)cc2)o1)Nc1ccc(Cl)cc1Cl | 22 µM (inactive) | 27 µM (inactive) | 19.7 µM (inactive) | 27.5 µM (inactive) | 23.3 µM | 33.3 µM (inactive) | 21.5 µM (inactive) | – | 28.5 µM (inactive) | 32.4 µM (inactive) | 32.8 µM (inactive) | 38 µM (inactive) | 25.2 µM (inactive) | > 100 µM (inactive) | 25.3 µM (inactive) | 30.3 µM (inactive) | > 100 µM (inactive) | 24.3 µM (inactive)
14 | Brc1ccccc1C1SCc2nc3ccccc3n21 (stereo not given) | 8.07 µM (inactive) | 13.2 µM (inactive) | 17.1 µM (inactive) | 20.7 µM (inactive) | 9.84 µM | 6.34 µM (inactive) | 18.8 µM (inactive) | 13.2 µM (inactive) | 23.6 µM (inactive) | 13.7 µM (inactive) | 18.6 µM (inactive) | 7.01 µM (inactive) | 20 µM (inactive) | 17.4 µM (inactive) | 11.7 µM (inactive) | 23.8 µM (inactive) | – | 18.5 µM (inactive)
15 | CC(O)C(C(=O)O)N(CC1(O)OCC(O)C(O)C1O)N=O (stereo not given) | > 100 µM (inactive) | > 100 µM (inactive) | – | > 100 µM (inactive) | – | – | > 100 µM (inactive) | > 100 µM (inactive) | > 100 µM (inactive) | > 100 µM (inactive) | > 100 µM (inactive) | > 100 µM (inactive) | – | > 100 µM (inactive) | > 100 µM (inactive) | – | > 100 µM (inactive) | > 100 µM (inactive)
16 | CCCCCCCCC(=O)N(C)C1C2CN3CCC(O2)C13 (stereo not given) | > 100 µM (inactive) | > 100 µM (inactive) | > 100 µM (inactive) | > 100 µM (inactive) | > 100 µM | > 100 µM (inactive) | > 100 µM (inactive) | > 100 µM (inactive) | – | > 100 µM (inactive) | > 100 µM (inactive) | > 100 µM (inactive) | > 100 µM (inactive) | > 100 µM (inactive) | > 100 µM (inactive) | > 100 µM (inactive) | > 100 µM (inactive) | > 100 µM (inactive)
17 | C/C(=N\Nc1ccccc1)c1sc(-c2nc(C)c(/C(C)=N/Nc3ccccc3)s2)nc1C | 33.7 µM (inactive) | 18.1 µM (inactive) | 40.4 µM (inactive) | 58.5 µM (inactive) | 11.4 µM | 16.7 µM (inactive) | 16.1 µM (inactive) | 7.96 µM (inactive) | 33.4 µM (inactive) | 12.6 µM (inactive) | 14.1 µM (inactive) | 7.36 µM (inactive) | – | 42.2 µM (inactive) | 32.7 µM (inactive) | 21.2 µM (inactive) | > 46.1 µM (inactive) | 19.2 µM (inactive)

Reference: ChEMBL document CHEMBL1201862, “PubChem BioAssay data set” (2004)
